Data taken from patent publication US8466107B2, “Fibrin-binding peptides and conjugates thereof” (Bracco Imaging SpA, priority 2006, dated 2013).
Bridge positions count the residues as written; N and C are the ends. Square brackets hold non-standard residues; d marks the D form. Peptide text beside a SMILES is read from it. * marks the point of attachment. 5FAM = O=C1OC2(c3ccc(O)cc3Oc3cc(O)ccc32)c2ccc(C(=O)*)cc21; Phe(3,4-F2) = N[C@@H](Cc1ccc(F)c(F)c1)C(=O)O; Cha = N[C@@H](CC1CCCCC1)C(=O)O

Molecular target: DDE (fibrin-derived polypeptide) (Homo sapiens, UniProt P02671+P02675+P02679)
Sequence (P02671 124-216): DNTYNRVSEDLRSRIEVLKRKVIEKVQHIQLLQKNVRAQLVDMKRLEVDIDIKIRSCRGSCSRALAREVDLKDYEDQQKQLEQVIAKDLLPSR
Sequence (P02675 164-491): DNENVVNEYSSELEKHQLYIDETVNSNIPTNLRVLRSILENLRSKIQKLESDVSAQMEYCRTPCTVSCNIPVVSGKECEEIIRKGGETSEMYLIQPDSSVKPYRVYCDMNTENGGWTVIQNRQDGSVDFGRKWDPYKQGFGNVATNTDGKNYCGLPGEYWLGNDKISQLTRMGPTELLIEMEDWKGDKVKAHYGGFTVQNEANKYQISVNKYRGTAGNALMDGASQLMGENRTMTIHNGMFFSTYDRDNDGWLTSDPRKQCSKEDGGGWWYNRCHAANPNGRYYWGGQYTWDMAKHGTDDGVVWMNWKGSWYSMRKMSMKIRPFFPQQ
Sequence (P02679 114-432): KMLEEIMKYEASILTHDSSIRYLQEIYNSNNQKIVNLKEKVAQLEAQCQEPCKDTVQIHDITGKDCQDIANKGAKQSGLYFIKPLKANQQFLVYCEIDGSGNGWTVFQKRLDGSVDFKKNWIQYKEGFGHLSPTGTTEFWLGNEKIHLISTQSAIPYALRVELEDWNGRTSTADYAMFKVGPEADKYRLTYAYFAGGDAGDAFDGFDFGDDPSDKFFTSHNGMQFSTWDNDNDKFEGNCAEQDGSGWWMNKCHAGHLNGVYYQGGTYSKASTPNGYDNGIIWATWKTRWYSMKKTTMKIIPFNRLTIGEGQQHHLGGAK
Sequence (P02671 36-97): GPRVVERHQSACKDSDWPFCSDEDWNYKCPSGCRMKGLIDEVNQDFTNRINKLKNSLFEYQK
Sequence (P02675 45-152): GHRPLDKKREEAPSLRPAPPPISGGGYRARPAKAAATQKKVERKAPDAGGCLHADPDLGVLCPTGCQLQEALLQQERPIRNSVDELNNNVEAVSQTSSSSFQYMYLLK
Sequence (P02679 27-88): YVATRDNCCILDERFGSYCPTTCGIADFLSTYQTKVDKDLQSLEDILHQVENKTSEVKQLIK
Experiment: Direct binding fluorescence polarization (FP) assay using 5-carboxyfluorescein labeled peptides
Conditions: 20 nM CF5-labeled peptide, serial dilutions of DDE, anisotropy read at 485 nm; read-out: KD (μM) Direct Binding (n = 2)

For CC(=O)N[C@@H](Cc1c[nH]c2ccccc12)C(=O)N[C@@H](CCC(N)=O)C(=O)N1CCC[C@H]1C(=O)N[C@H]1CSSC[C@@H](C(=O)N[C@@H](Cc2c[nH]c3ccccc23)C(=O)N[C@@H](CC(=O)O)C(=O)N2CCC[C@H]2C(=O)NCC(=O)NCC(=O)NCC(=O)N[C@@H](CCCCNC(=O)c2ccc3c(c2)C(=O)OC32c3ccc(O)cc3Oc3cc(O)ccc32)C(N)=O)NC(=O)[C@H](Cc2ccc(F)c(F)c2)NC(=O)[C@H]([C@@H](C)O)NC(=O)[C@H](Cc2c[nH]c3ccccc23)NC(=O)[C@H](CO)NC(=O)[C@H](CCC(=O)O)NC(=O)[C@H](Cc2c[nH]c3ccccc23)NC(=O)[C@@H]2CCCN2C1=O [Seq020-CF5, Ac-WQPC*PWESWT-F34fe-C*WDPGGGK(CF5)-NH2] (Ac-WQPCPWESWT[Phe(3,4-F2)]CWDPGGGK(5FAM)-NH2; disulfide 4-12), the Kd was 0.7 µM.
Work on CC(=O)N[C@@H](CCCNC(=N)N)C(=O)NCC(=O)N[C@@H](Cc1c[nH]c2ccccc12)C(=O)N[C@@H](CCC(N)=O)C(=O)N1CCC[C@H]1C(=O)N[C@H]1CSSC[C@@H](C(=O)N[C@@H](Cc2c[nH]c3ccccc23)C(=O)N[C@@H](CC(=O)O)C(=O)N2CCC[C@H]2C(=O)NCC(=O)NCC(=O)NCC(=O)N[C@@H](CCCCNC(=O)c2ccc3c(c2)C(=O)OC32c3ccc(O)cc3Oc3cc(O)ccc32)C(N)=O)NC(=O)[C@H](Cc2ccccc2)NC(=O)[C@H]([C@@H](C)O)NC(=O)[C@H](Cc2c[nH]c3ccccc23)NC(=O)[C@H](CO)NC(=O)[C@H](CCC(=O)O)NC(=O)[C@H](Cc2c[nH]c3ccccc23)NC(=O)[C@@H]2CCCN2C1=O [Seq052-CF5] (Ac-RGWQPCPWESWTFCWDPGGGK(5FAM)-NH2; disulfide 6-14) yielded a Kd of 0.53 µM.
Compound CC(=O)N[C@@H](CCCNC(=N)N)C(=O)N[C@@H](Cc1c[nH]c2ccccc12)C(=O)N[C@@H](CCC(N)=O)C(=O)N1CCC[C@H]1C(=O)N[C@H]1CSSC[C@@H](C(=O)N[C@@H](Cc2c[nH]c3ccccc23)C(=O)N[C@@H](CC(=O)O)C(=O)N2CCC[C@H]2C(=O)NCC(=O)NCC(=O)NCC(=O)N[C@@H](CCCCNC(=O)c2ccc3c(c2)C(=O)OC32c3ccc(O)cc3Oc3cc(O)ccc32)C(N)=O)NC(=O)[C@H](Cc2ccccc2)NC(=O)[C@H]([C@@H](C)O)NC(=O)[C@H](Cc2c[nH]c3ccccc23)NC(=O)[C@H](CO)NC(=O)[C@H](CCC(=O)O)NC(=O)[C@H](Cc2c[nH]c3ccccc23)NC(=O)[C@@H]2CCCN2C1=O [Seq048-CF5] (Ac-RWQPCPWESWTFCWDPGGGK(5FAM)-NH2; disulfide 5-13) has a Kd of 0.11 µM.
Work on C[C@@H]1NC(=O)[C@@H]2CCCN2C(=O)[C@@H](NC(=O)[C@@H]2CCCN2C(=O)[C@H](CCC(N)=O)NC(=O)[C@H](Cc2c[nH]c3ccccc23)NC(=O)CN)CSSC[C@@H](C(=O)N[C@@H](Cc2c[nH]c3ccccc23)C(=O)N[C@@H](CC(=O)O)C(=O)N2CCC[C@H]2C(=O)NCC(=O)NCC(=O)NCC(=O)N[C@@H](CCCCNC(=O)c2ccc3c(c2)C(=O)OC32c3ccc(O)cc3Oc3cc(O)ccc32)C(N)=O)NC(=O)[C@H](CC2CCCCC2)NC(=O)[C@H]([C@@H](C)O)NC(=O)[C@H](Cc2c[nH]c3ccccc23)NC(=O)[C@H](CO)NC(=O)[C@H](CCC(=O)O)NC1=O [Seq051-CF5, GWQPC*PAESWT-Cha-C*WDPGGGK(CF5)-NH2] (H-GWQPCPAESWT[Cha]CWDPGGGK(5FAM)-NH2; disulfide 5-13; N-terminus assumed) yielded a Kd of 0.06 µM.
